The values that follow are results of earlier work, collected in paper PMC4617652 (Journal of the American Chemical Society, 2015).

Where two headings read alike, the source gives them in different places.

In the case of `C1CCC2=NCCCN2CC1` [DBU], the “pKBH+ of reference base” value (MeCN ref 24) is reported as 24.34.
For `CC(C)(C)N=P(N1CCCC1)(N1CCCC1)N1CCCC1` [P1-tBu(pyrr)3], the “pKBH+ of reference base” value (MeCN ref 19) was 28.35.
Consider `CCN=P(N=P(N(C)C)(N(C)C)N(C)C)(N(C)C)N(C)C` [P2-Et], for which the “pKBH+ of reference base” value (MeCN ref 6c) is listed as 32.94.
